Measured values taken from ChEMBL document CHEMBL1201862, “PubChem BioAssay data set” (2004).
Calls of active or inactive are those of the source.

How the values were obtained:
[1] = target: T1, NADPH oxidase 1 (Homo sapiens, UniProt Q9Y5S8); assay type: functional, cell-based;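 note: Cell-based assay with luminescence read-out, IC50 derived from inhibitor dose-response curves; intracellular ROS from endogenous NOX1 in intact HT29 colon cancer cells; potency of inhibitors that lower the ROS luminescence signal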
T1 sequence (Q9Y5S8 whole entry): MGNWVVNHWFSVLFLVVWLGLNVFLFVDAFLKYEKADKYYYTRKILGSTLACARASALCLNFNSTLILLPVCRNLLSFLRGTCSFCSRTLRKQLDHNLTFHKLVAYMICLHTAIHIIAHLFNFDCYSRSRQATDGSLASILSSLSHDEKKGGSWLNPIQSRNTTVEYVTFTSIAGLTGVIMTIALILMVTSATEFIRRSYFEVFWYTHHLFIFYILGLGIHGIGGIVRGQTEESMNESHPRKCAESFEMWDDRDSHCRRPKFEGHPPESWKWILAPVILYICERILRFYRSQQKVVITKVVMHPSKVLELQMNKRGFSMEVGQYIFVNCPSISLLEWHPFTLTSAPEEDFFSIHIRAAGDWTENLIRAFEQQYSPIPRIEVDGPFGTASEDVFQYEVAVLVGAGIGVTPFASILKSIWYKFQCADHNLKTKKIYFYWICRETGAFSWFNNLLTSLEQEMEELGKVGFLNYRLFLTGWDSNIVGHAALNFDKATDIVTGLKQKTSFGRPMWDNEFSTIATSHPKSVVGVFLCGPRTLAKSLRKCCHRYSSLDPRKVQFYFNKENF

[2] = test system: BJ; assay: BJ-TERT-LT-ST fibroblast viability loss – cell-based, RAS-independent, luminescence, dose response (AID 1935); assay type: functional, Homo sapiens; conditions: Homo sapiens, BJ;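 note: BJ fibroblasts immortalized with TERT plus LT and ST oncogenes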
[3] = test system: BJ; assay: cells; assay type: functional, cell-based, Homo sapiens; conditions: Homo sapiens, BJ
[4] = cells
[5] = luciferase reporter signal reduction – luminescence, H4-C neuroglioblastoma cells, dose response (AID 2458); assay type: functional, cell-based;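 note: H4 neuroglioblastoma cells stably carrying a luciferase reporter gene fusion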
[6] = luciferase reporter signal suppression in cells – H4 neuroglioma cells, luminescence, dose response (AID 1990); assay type: functional, cell-based
[7] = target: Paired box protein Pax-8 (Homo sapiens, UniProt Q06710); assay: PAX8 transcriptional activity inhibition in RMG-I – RMG-I cells, luciferase, cherry-pick, dose response (AID 687027); assay type: functional, cell-based;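 note: luciferase reporter driven by Pax8 target thyroperoxidase promoter measured by SteadyGlo luminescence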
[8] = target: T2, High affinity choline transporter 1 (Homo sapiens, UniProt Q9GZV3); assay: human choline transporter blockers, potency – cell-based, 5-point CRC, membrane potential dye, dose response (AID 504840); assay type: functional
T2 sequence (Q9GZV3 whole entry): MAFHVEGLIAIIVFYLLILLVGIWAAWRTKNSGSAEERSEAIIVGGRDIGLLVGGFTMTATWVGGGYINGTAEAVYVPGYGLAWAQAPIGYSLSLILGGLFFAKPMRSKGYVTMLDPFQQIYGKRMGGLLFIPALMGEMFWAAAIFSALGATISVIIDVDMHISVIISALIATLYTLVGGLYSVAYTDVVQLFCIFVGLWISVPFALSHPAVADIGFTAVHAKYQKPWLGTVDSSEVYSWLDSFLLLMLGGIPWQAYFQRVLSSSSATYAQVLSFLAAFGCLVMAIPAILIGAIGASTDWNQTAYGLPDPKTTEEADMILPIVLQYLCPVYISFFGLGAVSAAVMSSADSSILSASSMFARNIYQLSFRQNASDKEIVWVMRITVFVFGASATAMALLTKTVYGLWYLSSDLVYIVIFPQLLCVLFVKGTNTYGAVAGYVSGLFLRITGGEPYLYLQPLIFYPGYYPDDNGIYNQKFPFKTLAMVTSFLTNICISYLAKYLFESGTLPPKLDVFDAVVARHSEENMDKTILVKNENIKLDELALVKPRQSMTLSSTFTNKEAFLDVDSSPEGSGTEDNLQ

[9] = alpha-synuclein stem-loop translation blockers – luminescence, H4 neuroglioblastoma cells, dose confirmation, confirmation (AID 2454); assay type: functional, cell-based;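 note: H4 neuroglioblastoma cells carrying an alpha-synuclein 5'UTR luciferase reporter; potency for inhibition of the luciferase signal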
[10] = target: Major prion protein (Homo sapiens, UniProt P04156); assay type: functional, cell-based
[11] = target: Photoreceptor-specific nuclear receptor (Homo sapiens, UniProt Q9Y5X4); assay type: functional, cell-based;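 note: CHO-S cells with Gal4-NCOR and VP16-NR2E3 two-hybrid luciferase reporter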
[12] = target: T2, High affinity choline transporter 1; assay: human choline transporter blockers, potency – cell-based, 10-point CRC, membrane potential dye, dose response (AID 588401); assay type: functional;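 note: membrane potential dye fluorescence of choline-evoked depolarization via CHT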
[13] = HEK-293T cell viability reduction – luminescence, B-cell screen hits, cytotoxicity control for BCR NF-kB inhibitor project, dose response (AID 489021); assay type: functional, cell-based;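 note: HEK-293T cells carrying an NF-kB luciferase reporter; cells exposed to compound for about 14 hours before viability readout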
[14] = cells; assay type: functional, cell-based
[15] = test system: INS1; assay: INS-1E survival protection against cytokine death – cell-based, luminescence, retest, dose response (AID 449756); assay type: functional; conditions: Rattus norvegicus;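 note: cell death triggered by IL-1 beta plus TNF-alpha plus IFN-gamma mixture; protective hits raise ATP signal compared with cytokine alone wells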
[16] = alpha-synuclein stem-loop luciferase translation blockers – H4 neuroglioma cells, luminescence, confirmation (AID 1988); assay type: functional, cell-based
[17] = Luminescence Cell-Based Dose Response HTS to Identify Inhibitors of 5'UTR Stem-Loop Driven Prion Protein mRNA Translation in H4 Neuroglioblastoma Cells. [Related pubchem assays: 1827 (Project Summary), 1813 (Primary HTS)]; assay type: functional
[18] = Luminescence-based dose response cell-based high throughput screening assay for cytotoxic compounds using the IEC-6 intestinal epithelial cell line. [Related pubchem assays: 1858 (Summary AID.), 1825 (Counterscreen.), 1907 (Confirmation screen.)]; assay type: functional
[19] = target: Galanin receptor type 2 (Homo sapiens, UniProt O43603); assay: Dose Response cell-based high-throughput screening assay to identify antagonists of galanin receptor 2 (GALR2). [Related pubchem assays: 828, 866 ]; assay type: functional

SMILES	IC50 [1]	EC50 [2]	EC50 [3]	IC50 [4]	EC50 [5]	EC50 [6]	AC50 [7]	IC50 [8]	EC50 [9]	IC50 [10]	IC50 [11]	IC50 [12]	IC50 [13]	EC50 [14]	AC50 [15]	EC50 [16]	EC50 [17]	IC50 [18]	IC50 [19]
COc1ccccc1OC(=O)c1cc2ccccc2s1	> 17000 nM (not active)	–	–	–	–	–	–	–	–	–	–	–	–	–	–	–	–	–	–
CC1CCC/C=C/C2CC(O)CC2C(O)/C=C/C(=O)O1 (centres undefined)	–	< 120 nM (active)	> 150000 nM (inconclusive)	> 138000 nM (inactive)	78 nM (active)	< 100 nM (active)	< 260 nM (active)	1870 nM (active)	71 nM (active)	3430 nM (active)	714 nM (active)	3030 nM (active)	> 80000 nM (inactive)	78 nM (active)	740 nM (active)	< 100 nM (active)	< 100 nM (active)	353 nM (active)	> 42000 nM (not active)
